Assay results from patent US9498463B2, “Compound obtained from gamboge resin, and medical uses of the same” (priority 2010, dated 2016).
≈ marks a conversion by molar mass, not a printed value. Read-outs that look alike come from different tables or passages of the source.

Experiments:
[1] = tested on: Human lung carcinoma cell A549; assay: cells; details: for CC50: A549, read-out: LC50 (50% lethal concentration)
From the text: (§1) In Vitro Anti-Cancer Test
(§2) The in vitro anti-cancer test was primarily used to detect the effect of a candidate drug on cancer cell proliferation. The working principle involved therein is the ability of viable cells to shift alamarBlue (AbD Serotec, UK) from its originally non-fluorescent oxidized state (non-fluorescent, blue) to a reduced form (fluorescent, red) having fluorescence via metabolic reaction. According to the fluorescent data result generated by the alamarBlue reagent thus obtained, the proliferation of the viable cells and cell activity can be quantified for detection.
(§3) In the in vitro anti-cancer tests, a candidate drug was tested at 5 different concentrations of 0.01, 0.1, 1, 10, and 100 μg/ml, and six human cancer cell lines and a normal human cell line were used (see Table 5).

[2] = tested on: Human hepatocellular carcinoma cell HepG2; assay: cells; details: for IC50: HepG2, read-out: IC50 (50% inhibition concentration); for CC50: HepG2, read-out: LC50 (50% lethal concentration)
From the text: as §1, §2, §3

[3] = tested on: Human breast adenocarcinoma cell MCF7; assay: cells; details: Homo sapiens; for IC50: MCF7, read-out: IC50 (50% inhibition concentration); for CC50: MCF7, read-out: LC50 (50% lethal concentration)
From the text: as §1, §2, §3

[4] = tested on: Human colon adenocarcinoma cell HT-29; assay: cells; details: for IC50: HT-29, read-out: IC50 (50% inhibition concentration); for CC50: HT-29, read-out: LC50 (50% lethal concentration)
From the text: as §1, §2, §3

[5] = tested on: Human umbilical venal epithelial cell (HUVEC); assay: cells; details: Homo sapiens, HUVEC, read-out: IC50 (50% inhibition concentration)
From the text: as §1, §2, §3

[6] = in vitro
From the text: as §1, §2, §3

[7] = tested on: Human promyelocytic leukemia cell HL-60; assay: cells; details: for CC50: HL-60, read-out: LC50 (50% lethal concentration)
From the text: as §1, §2, §3

[8] = tested on: Human histocytic lymphoma cell U937; assay: cells; details: for CC50: U-937, read-out: LC50 (50% lethal concentration)
From the text: as §1, §2, §3

[9] = A549, read-out: IC50 (50% inhibition concentration)
[10] = HL-60, read-out: IC50 (50% inhibition concentration)
[11] = U-937, read-out: IC50 (50% inhibition concentration)

SMILES | IC50 [1, 9] [µg/mL] | CC50 [1] [µg/mL] | IC50 [2] [µg/mL] | CC50 [2] [µg/mL] | IC50 [3] [µg/mL] | CC50 [3] [µg/mL] | IC50 [4] [µg/mL] | CC50 [4] [µg/mL] | IC50 [5] [µg/mL] | CC50 [6] [µg/mL] | IC50 [7, 10] [µg/mL] | CC50 [7] [µg/mL] | IC50 [8, 11] [µg/mL] | CC50 [8] [µg/mL] | IC50 ([1]; A549, read-out: IC50 (50% inhibition concentration), A549) [µg/mL] | IC50 ([7]; HL-60, read-out: IC50 (50% inhibition concentration), HL-60) [µg/mL] | IC50 ([8]; U-937, read-out: IC50 (50% inhibition concentration), U937) [µg/mL]
CC(C)=CCc1c2c(c(O)c3c1O[C@]1(C)CCC4C3C1C4(C)C)C(=O)C1=C[C@@H]3CC4C(C)(C)OC(C/C=C(/C)C(=O)O)(C3=O)[C@@]14O2 [Gh-2607-B] | 0.1 (≈ 0.159 µM) | 0.33 (≈ 0.525 µM) | 0.31 (≈ 0.493 µM) | 4 (≈ 6.36 µM) | 0.1 (≈ 0.159 µM) | 0.68 (≈ 1.08 µM) | 0.3 (≈ 0.477 µM) | 1 (≈ 1.59 µM) | 0.07 (≈ 0.111 µM) | 1.6 (≈ 2.54 µM) | 0.13 (≈ 0.207 µM) | 3.1 (≈ 4.93 µM) | 0.1 (≈ 0.159 µM) | 0.25 (≈ 0.398 µM) | – | – | –
CC(C)=CCC[C@@]1(C)C=Cc2c(O)c3c(c(CC=C(C)C)c2O1)O[C@]12C(=C[C@@H]4CC1C(C)(C)O[C@]2(C/C=C(\C)C(=O)O)C4=O)C3=O [Gh-1642, epiisogambogic acid] | 0.51 (≈ 0.811 µM) | 2.8 (≈ 4.45 µM) | 1.1 (≈ 1.75 µM) | 5.3 (≈ 8.43 µM) | 2.4 (≈ 3.82 µM) | 29 (≈ 46.1 µM) | 1.9 (≈ 3.02 µM) | 4.8 (≈ 7.63 µM) | 0.18 (≈ 0.286 µM) | 1.3 (≈ 2.07 µM) | 6 (≈ 9.54 µM) | 35 (≈ 55.7 µM) | 8.8 (≈ 14 µM) | 33 (≈ 52.5 µM) | – | – | –
C=C(C)C1CC[C@]2(C)C[C@H]1c1c(O)c3c(c(CC=C(C)C)c1O2)O[C@]12C(=C[C@@H]4CC1C(C)(C)O[C@]2(/C=C/C(C)C(=O)O)C4=O)C3=O (stereo partly drawn) [Gh-2508, 3-butenoic acid, 2-methyl-4-[(1R,3aS,5S,9R,10S,13R,16aS)-3a,4,5,7,10,11,12,13-octahydro-8-hydroxy-3,3,13-trimethyl-15-(3-methyl-2-butenyl)-10-(1-methylethenyl)-7,18-dioxo-1,5:9,13-dimethano-1H,3H,9H-furo[3.4-g]oxocino[3.2-b]xanthen-1-yl]-,(3E)-] | 0.16 (≈ 0.254 µM) | 0.46 (≈ 0.732 µM) | 1.9 (≈ 3.02 µM) | 5.9 (≈ 9.38 µM) | 0.087 (≈ 0.138 µM) | 1.7 (≈ 2.7 µM) | 1.8 (≈ 2.86 µM) | 5.5 (≈ 8.75 µM) | 0.52 (≈ 0.827 µM) | 5.4 (≈ 8.59 µM) | 0.28 (≈ 0.445 µM) | 6.6 (≈ 10.5 µM) | 0.28 (≈ 0.445 µM) | 2.2 (≈ 3.5 µM) | – | – | –
CC(C)=CCC/C(C)=C/Cc1c(O)c(CC=C(C)C)c2c(c1O)C(=O)C1=C[C@@H]3CC4C(C)(C)O[C@](C/C=C(/C)C(=O)O)(C3=O)[C@@]14O2 [Gh-2505, gambogenic acid] | 0.62 (≈ 0.983 µM) | 12 (≈ 19 µM) | 2.1 (≈ 3.33 µM) | 6.5 (≈ 10.3 µM) | 1.9 (≈ 3.01 µM) | 19 (≈ 30.1 µM) | 2.1 (≈ 3.33 µM) | 4.4 (≈ 6.98 µM) | 0.28 (≈ 0.444 µM) | 2.3 (≈ 3.65 µM) | 0.75 (≈ 1.19 µM) | 7.2 (≈ 11.4 µM) | 1.1 (≈ 1.74 µM) | 3.7 (≈ 5.87 µM) | – | – | –
CC(C)=CCC[C@@]1(C)C=Cc2c(O)c3c(c(CC=C(C)C)c2O1)O[C@]12C(=C[C@@H]4CC1C(C)(C)O[C@]2(C/C=C(/CO)C(=O)O)C4=O)C3=O [Gh-1602, 30-hydroxyepigambogic acid] | – | – | – | – | – | 4 (≈ 6.2 µM) | – | – | – | 0.94 (≈ 1.46 µM) | – | – | – | – | 0.4 (≈ 0.62 µM) | 1 (≈ 1.55 µM) | –
CC(C)=CCC[C@]1(C)C=Cc2c(O)c3c(c(CC=C(C)C)c2O1)O[C@]12C(=C[C@@H]4CC1C(C)(C)O[C@]2(C/C=C(/CO)C(=O)O)C4=O)C3=O [Gh-1601-A, 30-hydroxygambogic acid] | – | – | – | – | – | – | – | – | – | 5.4 (≈ 8.38 µM) | – | 3 (≈ 4.65 µM) | – | – | – | – | 0.09 (≈ 0.14 µM)
C=C(C)[C@@H]1CC[C@@]2(C)CC1c1c(O)c3c(c(CC=C(C)C)c1O2)O[C@]12C(=C[C@@H]4CC1C(C)(C)O[C@]2(C/C=C(/C)C(=O)O)C4=O)C3=O [Gh-2603-1, 2-butenoic acid, 2-methyl-4-[(1R,3aS,5S,9S,10R,13S,16aS)-3a,4,5,7,10,11,12,13-octahydro-8-hydroxy-3,3,13-trimethyl-15-(3-methyl-2-butenyl)-10-(1-methylethenyl)-7,18-dioxo-1,5:9,13-dimethano-1H,3H,9H-furo[3.4-g]oxocino[3.2-b]xanthen-1-yl]-,(2Z)-] | – | – | 1 (≈ 1.59 µM) | – | – | – | – | – | – | 1.7 (≈ 2.7 µM) | 1 (≈ 1.59 µM) | – | – | – | – | – | –
